Series [1] concerns CD-1 mice. As to the kind of experiment: Toxicity studies: expression levels of ALT and AST after ASS1 mRNA-loaded lipid nanoparticles. The series is classed as in vivo, mouse. Here is the method:
(§1) All studies were performed using male CD-1 mice of approximately 6-8 weeks of age at the beginning of each experiment. Samples were introduced by a single bolus tail-vein injection of an equivalent total dose of 1.0 mg/kg (or otherwise specified) of encapsulated ASS1 mRNA. Mice were sacrificed and perfused with saline at the designated time points.
All animals were euthanized by CO2 asphyxiation at designated time points post dose administration (±5%) followed by thoracotomy and terminal cardiac blood collection. Whole blood (maximal obtainable volume) will be collected via cardiac puncture on euthanized animals into serum separator tubes, allowed to clot at room temperature for at least 30 minutes, centrifuged at 22° C.±5° C. at 9300 g for 10 minutes, and the serum will be extracted. For interim blood collections, approximately 40-50 μL of whole blood will be collected via facial vein puncture or tail snip. Samples collected from non treatment animals were used as a baseline ASS1 levels for comparison to study animals.
The chiral compounds of formula I generally yielded lower expression levels of ALT and/or AST, i.e., correlating to lower liver toxicity issues, compared to stereochemically non-enriched, or stereochemically less enriched, compositions of the same lipid.

The subject of series [2] is human ASS1 protein production in wild type mouse liver. As to the kind of experiment: In vivo human ASS1 protein production (ELISA) via hASS1 mRNA-loaded lipid nanoparticles. As to conditions: Table 1, human ASS1 by ELISA, CD-1 mice, single bolus intravenous injection, 1.0 mg/kg encapsulated ASS1 mRNA, twenty-four hours post-injection. Here is the method:
as §1
The liver, spleen, kidney and heart of each mouse was harvested, apportioned into separate parts, and stored in either 10% neutral buffered formalin or snap-frozen and stored at −80° C. for analysis.
Human ASS1 ELISA: Standard ELISA procedures were followed employing mouse anti-ASS1 2D1-2E12 IgG as the capture antibody with rabbit anti-ASS1 #3285 IgG as the secondary (detection) antibody (Shire Human Genetic Therapies). Horseradish peroxidase (HRP)-conjugated goat anti-rabbit IgG was used for activation of the 3,3′,5,5′-tetramethylbenzidine (TMB) substrate solution. The reaction was quenched using 2N H2SO4 after 20 minutes. Detection was monitored via absorption (450 nm) on a Molecular Device SpectraMax instrument. Untreated mouse serum and organs and human ASS1 protein were used as negative and positive controls, respectively.
The production of human ASS1 protein via codon-optimized hASS1 mRNA-loaded lipid nanoparticles, comprising compounds of formula I, was tested in CD-1 mice as a single, bolus intravenous injection, as described above. FIG. 1 depicts the amount of human ASS1 protein detected via ELISA when treating mice human ASS1 mRNA-loaded lipid nanoparticles, with various racemic and chiral compounds of formula I, at 1.0 mg/kg doses. The mice were sacrificed twenty-four hours post-injection and organs, such as livers, were harvested.
In general terms: ELISA stands for enzyme-linked immunosorbent assay.

Setting [3] is: Table 1, ASS1 mRNA-loaded lipid nanoparticles with the named cKK-E12 composition as cationic lipid, mice, intravenous.
The mark [4] stands for this setting: Table 2, single intravenous dose, 24 hours post, formulation cKK-E12:DOPE:Chol:DMG-PEG2K, several lots per structure, in U/L.
Where [5] appears, read: Table 2, single intravenous dose, 24 hours post, formulation cKK-E12:DOPE:Chol:DMG-PEG2K, several lots per structure, listed as S4-RS/SR, in U/L.

“And” between values parts separate entries of the source, which are not always exact repeats. Identical values can stand only once.

For the compound `CCCCCCCCCC[C@@H](O)CN(CCCCC1NC(=O)C(CCCCN(C[C@H](O)CCCCCCCCCC)C[C@H](O)CCCCCCCCCC)NC1=O)C[C@H](O)CCCCCCCCCC` (mixture of isomers) [R4 with Racemic Lysine Core], in series [1] (setting [3]), the ALT is 188 ± 22 U/L and 236 ± 163 U/L; the AST was 265 ± 122 U/L and 237 ± 139 U/L. For the same compound, in series [2] (1 mg/kg), the “ASS1 (ng/mg Total Protein)” value was 823 ± 215 ng/mg Total Protein and 568 ± 248 ng/mg Total Protein.

`CCCCCCCCCCC(O)CN(CCCC[C@@H]1NC(=O)[C@H](CCCCN(CC(O)CCCCCCCCCC)CC(O)CCCCCCCCCC)NC1=O)CC(O)CCCCCCCCCC` (mixture of isomers) [Racemic —OH with SS Lysine Core]: in series [1] (setting [3]), the ALT is 378 ± 58 U/L and 618 ± 503 U/L; the AST is 622 ± 76 U/L and 638 ± 273 U/L. For the same compound, in series [2] (1 mg/kg), the “ASS1 (ng/mg Total Protein)” value is 117 ± 80 ng/mg Total Protein and 209 ± 169 ng/mg Total Protein.

Take `CCCCCCCCCC[C@H](O)CN(CCCCC1NC(=O)C(CCCCN(C[C@@H](O)CCCCCCCCCC)C[C@@H](O)CCCCCCCCCC)NC1=O)C[C@@H](O)CCCCCCCCCC` (mixture of isomers) [S4 with Racemic Lysine Core]: in series [1] (setting [3]), the ALT was 170 ± 40 U/L and 155 ± 57 U/L; the AST was 132 ± 44 U/L and 157 ± 38 U/L. The “ASS1 (ng/mg Total Protein)” value in series [2] (1 mg/kg) is 375 ± 244 ng/mg Total Protein and 674 ± 147 ng/mg Total Protein.

In the case of `CCCCCCCCCCC(O)CN(CCCC[C@@H]1NC(=O)[C@H](CCCCN(CC(O)CCCCCCCCCC)CC(O)CCCCCCCCCC)NC1=O)CC(O)CCCCCCCCCC` (stereo in doubt) [R4-S,S-cKKE12, (3S,6S)-3,6-bis(4-(bis((S)-2-hydroxydodecyl)amino)butyl)piperazine-2,5-dione], in series [1] (setting [3]), the ALT was 175 ± 102 U/L and the AST worked out at 144 ± 35 U/L. Further, in series [1] (setting [4]), the ALT was found to be 175 ± 102 and the AST is recorded as 144 ± 35. Moreover, the “ASS1 (ng/mg Total Protein)” value in series [2] turned out to be 449 ± 105 ng/mg Total Protein.

With `CCCCCCCCCC[C@@H](O)CN(CCCC[C@H]1NC(=O)[C@@H](CCCCN(C[C@H](O)CCCCCCCCCC)C[C@H](O)CCCCCCCCCC)NC1=O)C[C@H](O)CCCCCCCCCC` [R4-RR], in series [1] (setting [4]), the ALT is reported as 136 ± 34 and the AST worked out at 194 ± 80.

On to `CCCCCCCCCC[C@H](O)CN(CCCC[C@H]1NC(=O)[C@@H](CCCCN(C[C@@H](O)CCCCCCCCCC)C[C@@H](O)CCCCCCCCCC)NC1=O)C[C@@H](O)CCCCCCCCCC` [S4-RR], for which, in series [1] (setting [4]), the ALT worked out at 152 ± 9 and the AST is 180 ± 42.

Take `CCCCCCCCCC[C@H](O)CN(CCCC[C@@H]1NC(=O)[C@@H](CCCCN(C[C@@H](O)CCCCCCCCCC)C[C@@H](O)CCCCCCCCCC)NC1=O)C[C@@H](O)CCCCCCCCCC` [S4-S,R-cKKE12]: the ALT in series [1] (setting [3]) is 190 ± 75 U/L; in series [1] (setting [5]), 143 ± 29 and 189 ± 47 and 190 ± 75. For the same compound, the AST in series [1] (setting [3]) was 193 ± 71 U/L; in series [1] (setting [5]), 240 ± 98 and 203 ± 87 and 193 ± 71. Further, the “ASS1 (ng/mg Total Protein)” value in series [2] is recorded as 2303 ± 491 ng/mg Total Protein.

For the compound `CCCCCCCCCC[C@H](O)CN(CCCC[C@@H]1NC(=O)[C@H](CCCCN(C[C@@H](O)CCCCCCCCCC)C[C@@H](O)CCCCCCCCCC)NC1=O)C[C@@H](O)CCCCCCCCCC` [S4-S,S-cKKE12, (3S,6S)-3,6-bis(4-(bis((S)-2-hydroxydodecyl)amino)butyl)piperazine-2,5-dione], in series [1] (setting [3]), the ALT amounted to 226 ± 71 U/L and the AST is reported as 384 ± 233 U/L. In series [1] (setting [4]), the ALT was 226 ± 71 and the AST came out at 384 ± 233. In addition, the “ASS1 (ng/mg Total Protein)” value in series [2] was 1121 ± 468 ng/mg Total Protein.

Source of the values: patent publication US11104652B2, “Stereochemically enriched compositions for delivery of nucleic acids” (TRANSLATE BIO, INC., priority 2014, dated 2021).
